A word on the pIC50: it is −log10 of the IC50, conventionally taken in molar units.

One test has as its system A. thaliana. Briefly: Herbicidal activity assay on soil, pre- and post-emergence. The class given is in vivo, Arabidopsis thaliana. To be noted: for herbicidal activity: pre- and post-emergence. Here is the method:
Approximately 30 seeds of A. thaliana (accession Col-0) or E. tef were sown in 63 × 63 × 59 mm pots of Irish peat (Bord na Móna Horticulture Ltd, Newbridge, Ireland). Seeds were incubated in the dark for 3 days at 4 °C to synchronise germination. A single pre-emergence treatment (day 0) was performed when these seeds were transferred to a growth room at 22 °C with a 16:8 h light:dark photoperiod and 60% relative humidity. Two post-emergence treatments were performed following emergence of the seedlings (day 1) at days 4 and 7. Plants were watered accordingly throughout the experiment to maintain adequate moisture and photographed on day 16. Treatments were conducted with rosuvastatin, simvastatin, fluvastatin, atorvastatin (AK Scientific), pravastatin (BOC Sciences), lovastatin (Sapphire Bioscience), mevastatin, pitavastatin (Focus Bioscience), glyphosate, RoundUp® and atorvastatin analogues (1–9). To treat, 0.5 mL of each compound in a final concentration of 2% dimethyl sulfoxide (DMSO) and 0.02% Brushwet (SST Dandenong, Australia) was pipetted onto seedlings. Full experimental details and characterisation of atorvastatin analogue 1–9 synthesis can be found in Supplementary Method 1 and Supplementary Figs. 7–62. Growth inhibition was quantified by detecting green pixels for healthy seedlings using ImageJ (National Institutes of Health, 1.53 v) and the ‘Threshold Colour’ plug-in with the following settings: hue 50–110, saturation 125–255, brightness 30–255[67]. Images were converted into 8-bit format, and pixels measured over the same area. Data were normalised to a negative control to provide percentage inhibition.

The next test has as its target T1, AtHMG1 (Arabidopsis thaliana, UniProt P14891).
T1 construct: AtHMG1 (Uniprot P14891, At1g76490, residues 121–592); His6 (N); TEV cleavage site (N); made in house; host or cells: E. coli T7 SHuffle Express
The experiment in a line: biochemical. In kind it is biochemical. To be noted: for pIC50: wild-type AtHMG1, in vitro; for selectivity for AtHMG1 in vitro (dose-response): inhibition profiles AtHMG1 versus HsHMGCR. Here is the method:
An E. coli codon-optimised DNA sequence encoding the conserved […] region of AtHMG1 (Uniprot P14891, At1g76490, residues 121–592) was cloned into pQE30 (Qiagen) following an N-terminal His6-tag and tobacco etch virus cleavage site. The protein was expressed in the T7 SHuffle Express strain of E. coli (New England Biolabs) transformed with pREP4 (Qiagen) with the proteins expressed and purified as previously described. Briefly, cultures were grown in lysogeny broth containing 100 μg/mL ampicillin and 35 μg/mL kanamycin at 30 °C to an OD600 of 0.8–1.0. Cells were cooled to 16 °C before the expression was induced with 0.1 mM isopropyl β-D-1-thiogalactopyranoside. Following overnight culture, cells were harvested by centrifugation and lysed by ultrasonication in 100 mM HEPES (pH 7.5), 150 mM sodium chloride, 5 mM dithiothreitol, 0.1% Triton X-100. Lysed cells were then centrifuged (15,000×g) and the supernatant was incubated in 30 mL batches with Ni-NTA resin overnight at 4 °C. The resin was then washed with 50 mL of 100 mM HEPES (pH 7.5), 150 mM sodium chloride, 5 mM dithiothreitol followed by 50 mL of 100 mM HEPES (pH 7.5), 150 mM sodium chloride, 5 mM dithiothreitol, 20 mM imidazole. The protein was then eluted with 50 mL of 100 mM HEPES (pH 7.5), 150 mM sodium chloride, 5 mM dithiothreitol, 300 mM imidazole. Eluted protein was concentrated with a 30 kDa centrifugal filter unit (Millipore) and purified by size-exclusion chromatography (HiLoad 16/600 Superdex 200) in 100 mM HEPES (pH 7.5), 150 mM sodium chloride, 5 mM dithiothreitol. The protein was assessed for purity by SDS-PAGE, and protein concentration was determined by spectrophotometry.
(§1) AtHMG1 described above and human HMGR (HsHMGCR, Uniprot P04035, residues 441–888, cloned as above) were purified as above, and activity was determined by spectrophotometric measurement of the decrease in absorbance at 340 nm that occurs with NADPH oxidation in the presence of substrate HMG-CoA (Sigma-Aldrich). Reactions were performed with an assay buffer consisting of 150 mM sodium chloride, 5 mM dithiothreitol, 50 mM HEPES pH 7.4 and 2% DMSO. For kinetics determinations, a final concentration of 150 nM enzyme was incubated at 37 °C in 300 μM NADPH and different concentrations of HMG-CoA. Non-linear regression analysis was performed with GraphPad Prism 9 by plotting the initial reaction rates, v0, interpolated from a standard curve against the substrate concentration. The Michaelis–Menten constant, Km, was determined by fitting the data with a Michaelis–Menten equation and values for kcat were calculated by dividing Vmax by the molar enzyme concentration. To calculate relative specific activity, 500 nM of test compounds were pre-incubated at 37 °C with enzyme and 300 μM NADPH for 15 min before adding HMG-CoA to 200 μM. Resultant values were background subtracted and normalised to the average of the no-inhibitor control. For IC50 determinations, the same protocol was used, but varying inhibitor concentrations. Rosuvastatin data were plotted with a four-parameter (WT), and normalised response (L558T) non-linear regression model and atorvastatin and analogues were plotted with a normalised response with variable slope non-linear regression model.

A further test addresses T2, AtHMG1-L558T (Arabidopsis thaliana, UniProt P14891, L558T).
T2 construct: AtHMG1 (Uniprot P14891, At1g76490, residues 121–592); His6 (N); TEV cleavage site (N); made in house; host or cells: E. coli T7 SHuffle Express
The experiment in a line: biochemical. In kind it is biochemical. To be noted: for AtHMG1-L558T activity in the presence of statin: 500 nM, in comparison to wild-type. Here is the method: as §1

For test [1], the system named is wild-type (WT) A. thaliana. The experiment in a line: In planta statin resistance assay, non-transformed WT. The class given is in vivo. To be noted: Arabidopsis thaliana; growth medium, green pixels; read-out: IC50 growth inhibition, non-transformed WT. As to the method:
(§2) DNA encoding the full-length AtHMG1 protein (Uniprot P14891, residues 1–592) and the corresponding L558T mutant were cloned into a derivative of the pMDC43 binary vector[75] to yield 35 S::AtHMG1 and 35 S::AtHMG1-L558T transgenes, respectively. These constructs were then introduced into Agrobacterium tumefaciens strain LBA4404 and separately used to transform A. thaliana by the floral dip method[76],[77]. Seeds (T0/1) of transformed plants were collected and surface sterilised using 600 µL 70% ethanol, 750 µL 100% ethanol and soaked in 800 µL 50% bleach for 8 min, before washing with 800 µL sterile water and resuspension with 0.1% agar. Selection was performed on 30 µg/mL hygromycin growth medium (1% agar, 1% glucose, 0.45% Murashige & Skoog salts with vitamins, 0.3% 2-(N-morpholino)-ethanesulfonic acid (MES) (v/v), pH 5.7) in a growth room at 22 °C with 16:8 h light:dark photoperiod and 60% relative humidity. Surviving plants were transferred to 63 ×63 × 59 mm pots of Irish peat and grown to maturity in the same growth conditions. Seeds from plants with an adequate seed yield were then sterilised and selected again as described above with 30 µg/mL hygromycin growth medium. […] Plates were sealed with porous tape and grown for a minimum of 10 days with the growth conditions described above. Plates were then imaged, and growth quantified using ImageJ as described above. […]

The subject of test [2] is 35 S::AtHMG1 A. thaliana lines. Briefly: In planta statin resistance assay, 35 S::AtHMG1 lines. In kind it is in vivo. To be noted: Arabidopsis thaliana; 19 T2 lines combined; read-out: IC50 growth inhibition, 35 S::AtHMG1 lines. Here is the method: as §2
The test system of test [3] is 35 S::AtHMG1-L558T A. thaliana lines. In kind it is in vivo, Arabidopsis thaliana. Here is the method: DNA encoding the full-length AtHMG1 protein (Uniprot P14891, residues 1–592) and the corresponding L558T mutant were cloned into a derivative of the pMDC43 binary vector[75] to yield 35 S::AtHMG1 and 35 S::AtHMG1-L558T transgenes, respectively. These constructs were then introduced into Agrobacterium tumefaciens strain LBA4404 and separately used to transform A. thaliana by the floral dip method[76],[77]. Seeds (T0/1) of transformed plants were collected and surface sterilised using 600 µL 70% ethanol, 750 µL 100% ethanol and soaked in 800 µL 50% bleach for 8 min, before washing with 800 µL sterile water and resuspension with 0.1% agar. Selection was performed on 30 µg/mL hygromycin growth medium (1% agar, 1% glucose, 0.45% Murashige & Skoog salts with vitamins, 0.3% 2-(N-morpholino)-ethanesulfonic acid (MES) (v/v), pH 5.7) in a growth room at 22 °C with 16:8 h light:dark photoperiod and 60% relative humidity. Surviving plants were transferred to 63 ×63 × 59 mm pots of Irish peat and grown to maturity in the same growth conditions. Seeds from plants with an adequate seed yield were then sterilised and selected again as described above with 30 µg/mL hygromycin growth medium. […] Plates were sealed with porous tape and grown for a minimum of 10 days with the growth conditions described above. Plates were then imaged, and growth quantified using ImageJ as described above. Total green pixels were normalised against negative controls for the respective lines (2% DMSO and water) to provide percentage inhibition. […] Growth inhibition at varying concentrations of hygromycin and rosuvastatin were plotted with a four-parameter non-linear regression model using GraphPad Prism 9.

Another test deals with T3, HsHMGCR (Homo sapiens, UniProt P04035).
T3 construct: HsHMGCR, Uniprot P04035, residues 441–888; His6 (N); TEV cleavage site (N); made in house; host or cells: E. coli T7 SHuffle Express (by 'cloned as above ... purified as above')
T3 sequence (P04035 441-888): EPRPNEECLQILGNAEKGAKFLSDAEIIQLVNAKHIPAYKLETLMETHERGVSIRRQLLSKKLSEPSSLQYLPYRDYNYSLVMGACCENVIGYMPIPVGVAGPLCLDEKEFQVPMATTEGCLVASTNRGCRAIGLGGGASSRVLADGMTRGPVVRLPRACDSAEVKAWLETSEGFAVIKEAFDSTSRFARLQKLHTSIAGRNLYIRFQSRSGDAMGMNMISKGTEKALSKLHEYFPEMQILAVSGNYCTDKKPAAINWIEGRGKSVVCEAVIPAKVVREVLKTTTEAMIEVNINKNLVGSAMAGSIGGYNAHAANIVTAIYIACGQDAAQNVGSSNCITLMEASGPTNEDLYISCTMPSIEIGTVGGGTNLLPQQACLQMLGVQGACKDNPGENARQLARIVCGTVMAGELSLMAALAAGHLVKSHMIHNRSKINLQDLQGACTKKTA
Briefly: In vitro HMGR assay (NADPH depletion), HsHMGCR. The class given is biochemical. As to the method: as §1, with “Rosuvastatin data were plotted with a four-parameter (WT), and normalised response (L558T) non-linear regression model and atorvastatin and analogues were plotted with a normalised response with variable slope non-linear regression model.” left out

pIC50: −log10 of the molar value. “Also recorded” adds a separate entry of the source.

T2 sequence (P14891 121-592 L558T): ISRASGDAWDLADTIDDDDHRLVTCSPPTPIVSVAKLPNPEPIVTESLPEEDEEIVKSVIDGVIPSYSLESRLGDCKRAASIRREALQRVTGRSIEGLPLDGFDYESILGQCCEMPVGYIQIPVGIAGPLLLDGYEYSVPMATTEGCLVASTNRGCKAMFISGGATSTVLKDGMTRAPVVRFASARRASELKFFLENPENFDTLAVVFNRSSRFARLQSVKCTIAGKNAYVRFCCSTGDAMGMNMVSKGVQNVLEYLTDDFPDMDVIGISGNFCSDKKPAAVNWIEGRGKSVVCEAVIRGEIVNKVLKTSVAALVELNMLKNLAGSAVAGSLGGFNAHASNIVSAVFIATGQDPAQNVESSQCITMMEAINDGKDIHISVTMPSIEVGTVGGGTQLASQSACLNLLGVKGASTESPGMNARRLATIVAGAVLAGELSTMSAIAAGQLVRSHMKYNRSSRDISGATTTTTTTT
T1 sequence (P14891 121-592): as the sequence (P14891 121-592 L558T) above, with T438L counted along it

In the case of `CC(C)c1nc(N(C)S(C)(=O)=O)nc(-c2ccc(F)cc2)c1/C=C/[C@@H](O)C[C@@H](O)CC(=O)O` [rosuvastatin], the herbicidal activity result in the test on A. thaliana is on record as “most herbicidal statin”. For the same compound, the “concentration lethal to A. thaliana” value in the test on A. thaliana (rosuvastatin without formulation beyond a wetting agent, Roundup formulated, same conditions) was ~ 15 μM. In addition, the pIC50 at AtHMG1 was 7.28; against AtHMG1-L558T, less than 6.00; in test [1], 5.52; in test [2], 4.34. Also, at AtHMG1-L558T, the “AtHMG1-L558T activity in the presence of statin” value (from here on “AtHMG1-L558T activity”) was “retained activity”. On AtHMG1-L558T (in vitro), the “resistance of AtHMG1-L558T versus WT in vitro” value is recorded as more than 20 fold. In addition, the “35 S::AtHMG1-L558T lines less sensitive to treatment than 35 S::AtHMG1 lines” value in test [3] (80 µM versus 5 µM, compared to untreated WT) is listed as “up to 16 fold”. Also, the “resistance of 35 S::AtHMG1-L558T lines versus 35 S::AtHMG1 lines” value in test [3] (in planta) was “over sixfold more resistant”. Moreover, the “resistance of 35 S::AtHMG1-L558T lines versus non-transformed WT” value in test [3] (in planta) is recorded as “more than 100 fold”.
In the case of `CCC(C)(C)C(=O)O[C@H]1C[C@@H](C)C=C2C=C[C@H](C)[C@H](CC[C@@H]3C[C@@H](O)CC(=O)O3)[C@H]21` [simvastatin], on AtHMG1-L558T, the “AtHMG1-L558T activity” value was “retained activity”.
Same read-out and setting: as for `O=C(O)C[C@H](O)C[C@H](O)/C=C/c1c(C2CC2)nc2ccccc2c1-c1ccc(F)cc1` [pitavastatin], the entry is “retained activity”; as for `CC[C@H](C)C(=O)O[C@H]1C[C@H](O)C=C2C=C[C@H](C)[C@H](CC[C@@H](O)C[C@@H](O)CC(=O)O)[C@H]21` [pravastatin], “retained activity”.
For `CC(C)c1c(C(=O)Nc2ccccc2)c(-c2ccccc2)c(-c2ccc(F)cc2)n1CC[C@@H](O)C[C@@H](O)CC(=O)O` [atorvastatin], the “selectivity for AtHMG1 in vitro (dose-response)” value on AtHMG1 is “not selective”. Also, on AtHMG1-L558T, the “AtHMG1-L558T activity” value is “retained activity”.
For `CC[C@H](C)C(=O)O[C@H]1CCC=C2C=C[C@H](C)[C@H](CC[C@@H]3C[C@@H](O)CC(=O)O3)[C@H]21` [mevastatin], the “AtHMG1-L558T activity” value on AtHMG1-L558T is reported as “retained activity”.
Still for that read-out and setting: as for `CC(C)n1c(/C=C/C(O)CC(O)CC(=O)O)c(-c2ccc(F)cc2)c2ccccc21` (stereo not shown) [fluvastatin], the entry is “retained activity”.
With `O=C(O)C[C@H](O)C[C@H](O)CCn1c(-c2ccc(F)cc2)c(-c2ccccc2)c(C(=O)Nc2ccccc2)c1C1CCC1` [compound 7], the herbicidal activity result in the test with A. thaliana is “retained herbicidal activity”. In addition, on AtHMG1 (in vitro, from IC50 dose-response curves), the “specificity for AtHMG1 over HsHMGCR” value is on record as more than 20 fold. For the same compound, the “selectivity in vitro for AtHMG1 over HsHMGCR” value at AtHMG1 (initial screen at 500 nM) is “selective; also recorded: preference for AtHMG1 over HsHMGCR”. Further, the pIC50 on AtHMG1 was 7.49; on HsHMGCR it was 6.05.
`O=C(O)C[C@H](O)C[C@H](O)CCn1c(-c2ccc(F)cc2)c(-c2ccccc2)c(C(=O)Nc2ccccc2)c1C1CCCC1` [compound 8]: at AtHMG1, the “selectivity for AtHMG1 in vitro (dose-response)” value is given as “not selective”.
For the compound `CC[C@H](C)C(=O)O[C@H]1C[C@@H](C)C=C2C=C[C@H](C)[C@H](CC[C@@H]3C[C@@H](O)CC(=O)O3)[C@H]21` [lovastatin], the “AtHMG1-L558T activity” value on AtHMG1-L558T was “retained activity”.

(Values after publication PMC9500038, “A fungal tolerance trait and selective inhibitors proffer HMG-CoA reductase as a herbicide mode-of-action” (Nature Communications, 2022).)
